Reference: the supplement of paper PMC10307832

Tests used:
Experiment in all cases: relative viability (nuclei count vs DMSO), 5 days (fraction); higher = more cells survive
COR-L 105 = test system: COR-L 105
In short: (§1)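 Values are medians from duplicate plates. Each reflects relative viability, defined as the nuclei count of treated wells over that of vehicle wells. Lung cancer cell lines in 1536-well plates were pin-tool dosed one day after seeding with one drug alone or with a fixed anchor-drug dose plus five library-drug doses (not always all listed) in √10 steps, then fixed, stained and imaged at 4× after 5 days.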

COR-L23 = test system: COR-L23
In short: as §1

EPLC-272H = test system: EPLC-272H
In short: as §1

HARA = test system: HARA
In short: as §1

HCC-15 = test system: HCC-15
In short: as §1

HCC-366 = test system: HCC-366
In short: as §1

HCC-44 = test system: HCC-44
In short: as §1

HCC-78 = test system: HCC-78
In short: as §1

HCC-827 = test system: HCC-827
In short: as §1

LCLC-103H = test system: LCLC-103H
In short: as §1

NCI-H1395 = test system: NCI-H1395
In short: as §1

NCI-H1437 = test system: NCI-H1437
In short: as §1

NCI-H1792 = test system: NCI-H1792
In short: as §1

NCI-H1944 = test system: NCI-H1944
In short: as §1

NCI-H1975 = test system: NCI-H1975
In short: as §1

NCI-H2023 = test system: NCI-H2023
In short: as §1

NCI-H2085 = test system: NCI-H2085
In short: as §1

NCI-H2405 = test system: NCI-H2405
In short: as §1

NCI-H358 = test system: NCI-H358
In short: as §1

NCI-H661 = test system: NCI-H661
In short: as §1

NCI-H727 = test system: NCI-H727
In short: as §1

SK-LU-1 = test system: SK-LU-1
In short: as §1

UMC-11 = test system: UMC-11
In short: as §1

Cc1cnc(-c2cnc(NCCNc3ccc(C#N)cn3)nc2-c2ccc(Cl)cc2Cl)[nH]1 + C[C@]1(O)C[C@@H](c2nc(-c3ccc4ccc(-c5ccccc5)nc4c3)c3c(N)nccn32)C1 [Linsitinib] (partner 1 µM)
relative viability (COR-L 105; first compound 0.08 µM): 1 | relative viability (COR-L 105; first compound 0.253 µM): 0.897 | relative viability (COR-L 105; first compound 0.8 µM): 0.832 | relative viability (COR-L 105; first compound 2.53 µM): 0.697 | relative viability (COR-L23; first compound 0.08 µM): 0.814 | relative viability (COR-L23; first compound 0.253 µM): 0.833 | relative viability (COR-L23; first compound 0.8 µM): 0.929 | relative viability (COR-L23; first compound 2.53 µM): 0.962 | relative viability (EPLC-272H; first compound 0.08 µM): 1.08 | relative viability (EPLC-272H; first compound 0.253 µM): 1.18 | relative viability (EPLC-272H; first compound 0.8 µM): 1.27 | relative viability (EPLC-272H; first compound 2.53 µM): 1.13 | relative viability (HARA; first compound 0.08 µM): 1.1 | relative viability (HARA; first compound 0.253 µM): 0.847 | relative viability (HARA; first compound 0.8 µM): 0.921 | relative viability (HARA; first compound 2.53 µM): 0.933 | relative viability (HCC-15; first compound 0.08 µM): 0.897 | relative viability (HCC-15; first compound 0.253 µM): 0.811 | relative viability (HCC-15; first compound 0.8 µM): 0.8 | relative viability (HCC-15; first compound 2.53 µM): 0.835 | relative viability (HCC-366; first compound 0.08 µM): 0.694 | relative viability (HCC-366; first compound 0.253 µM): 0.557 | relative viability (HCC-366; first compound 0.8 µM): 0.608 | relative viability (HCC-366; first compound 2.53 µM): 0.28 | relative viability (HCC-44; first compound 0.08 µM): 0.685 | relative viability (HCC-44; first compound 0.253 µM): 0.553 | relative viability (HCC-44; first compound 0.8 µM): 0.681 | relative viability (HCC-44; first compound 2.53 µM): 0.787 | relative viability (HCC-78; first compound 0.08 µM): 0.632 | relative viability (HCC-78; first compound 0.253 µM): 0.437 | relative viability (HCC-78; first compound 0.8 µM): 0.459 | relative viability (HCC-78; first compound 2.53 µM): 0.435 | relative viability (HCC-827; first compound 0.08 µM): 0.963 | relative viability (HCC-827; first compound 0.8 µM): 1.01 | relative viability (HCC-827; first compound 2.53 µM): 0.955 | relative viability (LCLC-103H; first compound 0.08 µM): 0.968 | relative viability (LCLC-103H; first compound 0.253 µM): 1.11 | relative viability (LCLC-103H; first compound 0.8 µM): 1.21 | relative viability (LCLC-103H; first compound 2.53 µM): 1.09 | relative viability (NCI-H1395; first compound 0.08 µM): 1.17 | relative viability (NCI-H1395; first compound 0.253 µM): 0.972 | relative viability (NCI-H1395; first compound 0.8 µM): 1.04 | relative viability (NCI-H1395; first compound 2.53 µM): 1 | relative viability (NCI-H1437; first compound 0.08 µM): 1.01 | relative viability (NCI-H1437; first compound 0.253 µM): 0.972 | relative viability (NCI-H1437; first compound 0.8 µM): 1.03 | relative viability (NCI-H1437; first compound 2.53 µM): 1.04 | relative viability (NCI-H1792; first compound 0.08 µM): 0.683 | relative viability (NCI-H1792; first compound 0.253 µM): 0.435 | relative viability (NCI-H1792; first compound 0.8 µM): 0.464 | relative viability (NCI-H1792; first compound 2.53 µM): 0.524 | relative viability (NCI-H1944; first compound 0.08 µM): 1.36 | relative viability (NCI-H1944; first compound 0.8 µM): 1.23 | relative viability (NCI-H1944; first compound 2.53 µM): 1.21 | relative viability (NCI-H1975; first compound 0.08 µM): 1 | relative viability (NCI-H1975; first compound 0.253 µM): 0.847 | relative viability (NCI-H1975; first compound 0.8 µM): 0.836 | relative viability (NCI-H1975; first compound 2.53 µM): 0.603 | relative viability (NCI-H2023; first compound 0.08 µM): 0.779 | relative viability (NCI-H2023; first compound 0.253 µM): 0.649 | relative viability (NCI-H2023; first compound 0.8 µM): 0.794 | relative viability (NCI-H2023; first compound 2.53 µM): 1.12 | relative viability (NCI-H2085; first compound 0.08 µM): 0.986 | relative viability (NCI-H2085; first compound 0.253 µM): 0.932 | relative viability (NCI-H2085; first compound 0.8 µM): 0.919 | relative viability (NCI-H2085; first compound 2.53 µM): 0.882 | relative viability (NCI-H2405; first compound 0.08 µM): 1.25 | relative viability (NCI-H2405; first compound 0.253 µM): 0.856 | relative viability (NCI-H2405; first compound 0.8 µM): 0.999 | relative viability (NCI-H2405; first compound 2.53 µM): 0.709 | relative viability (NCI-H358; first compound 0.08 µM): 0.833 | relative viability (NCI-H358; first compound 0.253 µM): 0.561 | relative viability (NCI-H358; first compound 0.8 µM): 0.696 | relative viability (NCI-H358; first compound 2.53 µM): 0.618 | relative viability (NCI-H661; first compound 0.08 µM): 0.775 | relative viability (NCI-H661; first compound 0.253 µM): 0.628 | relative viability (NCI-H661; first compound 0.8 µM): 0.448 | relative viability (NCI-H661; first compound 2.53 µM): 0.63 | relative viability (NCI-H727; first compound 0.08 µM): 0.29 | relative viability (NCI-H727; first compound 0.253 µM): 0.334 | relative viability (NCI-H727; first compound 0.8 µM): 0.295 | relative viability (SK-LU-1; first compound 0.08 µM): 1.13 | relative viability (SK-LU-1; first compound 0.253 µM): 1.12 | relative viability (SK-LU-1; first compound 0.8 µM): 1.32 | relative viability (SK-LU-1; first compound 2.53 µM): 1.09 | relative viability (UMC-11; first compound 0.08 µM): 1.04 | relative viability (UMC-11; first compound 0.253 µM): 1 | relative viability (UMC-11; first compound 0.8 µM): 1 | relative viability (UMC-11; first compound 2.53 µM): 0.985
